The source of these data is US11952364B2, “TRK inhibitors useful as anticancer drugs” (TYLIGAND BIOSCIENCE (SHANGHAI) LIMITED, priority 2018, dated 2024).

SMILES strings stand for the structures.

For this experiment, the system named is Ba/F3 ETV6-NTRK3 cells. Briefly: Proliferation of Ba/F3 ETV6-NTRK3 cells (CellTiter-Glo). Format: cell-based. To be noted: Mus musculus, BaF3; Table 3; 72 hours. An excerpt: Ba/F3 ETV6-NTRK3 is a stable transgenic cell line constructed by KYinno Biotechnology Co., Ltd. on mouse primary B cell Ba/F3 wherein NTRK3 is highly expressed and fused with ETV6 to form ETV6-NTRK3. • [Test method]: Promega's CellTiter-Glo® Luminescent Cell Viability Assay kit was used to evaluate the inhibitory activity of the compounds on the proliferation of Ba/F3 ETV6-NTRK3 cells. • [Instrument]: Spectramax M3 multifunctional microplate reader from Molecular Devices. • [Test materials]: Ba/F3 ETV6-NTRK3 cell line (constructed by KYinno Biotechnology Co., Ltd. (Beijing)), 96-well transparent flat-bottomed black-walled cell culture plate (Corning, cat #3603), RPMI-1640 media (GE, cat #SH30027.01), fetal bovine serum FBS (Thermo Fisher, cat #10099-141), CellTiter-Glo® Luminescent Cell Viability Assay kit (Promega, cat #G7572), PBS (Solarbio, cat #P1020), DMSO (Sigma, cat #D2650). • [Experimental procedure]: When resuscitating Ba/F3 ETV6-NTRK3 cells, the freezing tube was quickly shaken in a 37° C. water bath to melt within 1 minute. The thawed cell suspension was mixed uniformly with RPMI1640 medium containing 10% FBS, centrifuged at 1000 rpm for 5 minutes, and the supernatant discarded. 5 mL of complete medium (RPMI1640 medium with 10% FBS) was taken to resuspend the cell pellets, charged into a cell culture flask with a bottom area of 25 cm^2, and incubated in a cell incubator at 37° C., 95% humidity and 5% CO2. Cells were allowed to passage when the number of cells reached about 10^6 cells/mL. For cell passage, the old cell suspension was directly pipetted evenly, 1/5 of the cell suspension was kept, 4 mL of new complete medium was added, after pipetting evenly, the cell flask was placed in the cell incubator for further culturing. Cell plating was performed when the number of cells reached about 10^6 cells/mL again. For cell plating, 1/5 of the cell suspension was kept for further culturing as in the cell passage method, and the remaining 4/5 of the cell suspension was placed in a 15 mL centrifuge tube, detected for cell viability by Trypan blue exclusion method to ensure that cell viability was above 90%. A cell suspension with a density of 5.56×10^4 viable cells/mL was prepared with complete medium, and 90 μL of such cell suspension was added to a 96-well cell culture plate to obtain the cell density of 5000 viable cells/mL in the cell culture plate. A control group containing no cells, no compound and only complete medium (i.e. culture medium control) and a control group containing no compound but containing cells (i.e. cell control) were set. The cell plate was placed in a cell incubator overnight. The 10 mM compound stock solution in DMSO was first serially diluted with DMSO at a dilution factor of 3.16 times, to obtain 9 concentrations, and the 10th concentration was set as DMSO control without compound. Then, PBS was used to dilute the DMSO solutions of compounds of different concentrations, at a dilution factor of 100 times, so that the DMSO concentration in the compound solution of each concentration was 1%. Finally, 10 μL of each of the above solutions was added to the corresponding cell culture plate, so that the initial compound concentration was 10 μM, with the remaining concentrations being successively diluted at a dilution factor of 3.16 times, and the DMSO content in the cell culture plate was 0.1%. The cell plate was placed in a cell incubator and cultured for 72 hours. For endpoint detection, the CellTiter-Glo reagent was melted, and the cell plate was moved to room temperature to equilibrate for 30 minutes, added with 100 μL of CellTiter-Glo for each well, and shaken on an orbital shaker for 5 minutes to fully lyse the cells. The plate was kept at room temperature for 20 minutes to stabilize the luminescence signal, and the luminescence value of each well was scanned with a multi-functional microplate reader at full wavelength. • [Test samples]

In turn, `Cn1ncc2cc(Oc3ccc(NC(=O)c4ccc(C(F)(F)F)n(-c5ccc(F)cc5)c4=O)cc3F)c(-c3cn[nH]c3)cc21` [Example 1, N-(3-fluoro-4-(1-methyl-6-(1H-pyrazol-4-yl)-1H-indazol-5-yloxy)phenyl)-1-(4-fluorophenyl)-6-trifluoromethyl-2-oxo-1,2-dihydmpyridine-3-carboxamide monomethanesulfonate] had an IC50 of 435 nM.
In the case of `Cn1ncc2cc(Oc3ccc(NC(=O)c4ccc(C5CC5)n(-c5ccc(F)cc5)c4=O)cc3F)c(-c3cn[nH]c3)cc21` [Example 2, N-(3-fluoro-4-(1-methyl-6-(1H-pyrazol-4-yl)-1H-indazol-5-yloxy)phenyl)-1-(4-fluorophenyl)-6-cyclopropyl-2-oxo-1,2-dihydmpyridine-3-carboxamide], half-maximal inhibition (IC50) was put at 94 nM.
For `CCn1ncc2cc(Oc3ccc(NC(=O)c4ccc(C)n(-c5ccc(F)cc5)c4=O)cc3F)c(-c3cn[nH]c3)cc21` [Example 3, N-(3-fluoro-4-(1-ethyl-6-(1H-pyrazol-4-yl)-1H-indazol-5-yloxy)phenyl)-1-(4-fluorophenyl)-6-methyl-2-oxo-1,2-dihydmpyridine-3-carboxamide] the value was 663 nM; for `Cc1ccc(C(=O)Nc2ccc(Oc3cc4cnn(C(C)C)c4cc3-c3cn[nH]c3)c(F)c2)c(=O)n1-c1ccc(F)cc1` [Example 4, N-(3-fluoro-4-(1-isopropyl-6-(1H-pyrazol-4-yl)-1H-indazol-5-yloxy)phenyl)-1-(4-fluorophenyl)-6-methyl-2-oxo-1,2-dihydmpyridine-3-carboxamide], 762 nM.
With `CCc1ccc(C(=O)Nc2ccc(Oc3cc4cnn(C)c4cc3-c3cn[nH]c3)c(F)c2)c(=O)n1-c1ccc(F)cc1` [Example 5, N-(3-fluoro-4-(1-methyl-6-(1H-pyrazol-4-yl)-1H-indazol-5-yloxy)phenyl)-1-(4-fluorophenyl)-6-ethyl-2-oxo-1,2-dihydropyridine-3-carboxamide], the midpoint of inhibition, the IC50, lay at 60 nM.
In turn, `CC(C)c1ccc(C(=O)Nc2ccc(Oc3cc4cnn(C)c4cc3-c3cn[nH]c3)c(F)c2)c(=O)n1-c1ccc(F)cc1` [Example 6, N-(3-fluoro-4-(1-methyl-6-(1H-pyrazol-4-yl)-1H-indazol-5-yloxy)phenyl)-1-(4-fluorophenyl)-6-isopropyl-2-oxo-1,2-dihydropyridine-3-carboxamide] displayed an IC50 of 284 nM.
As to `O=C(Nc1cnn2ccc(N3CCC[C@@H]3c3cc(F)ccc3F)nc12)N1CC[C@H](O)C1` [LOXO-101, Larotrectinib, reference compound], the midpoint of inhibition, the IC50, lay at 5 nM.
For `Cc1ccc(C(=O)Nc2ccc(Oc3cc4cnn(C)c4cc3-c3cn[nH]c3)c(F)c2)c(=O)n1-c1ccc(F)cc1` [Merestinib, reference compound] the value was 684 nM.
